Results taken from US20260077047A1, “CANCER THERAPY” (TURBINE SIMULATED CELL TECHNOLOGIES LTD, priority 2022, published 2026).

Tests used:
Assay in all cases: ATM inhibition viability assay (CTG) on cells ± NEK-1 knockout
Assay type in all cases: cell-based
Conditions in all cases: AZD1390 10 μM-0.00152 μM, 7 days, normalized to DMSO
[1] = system: Daoy cells ± NEK-1 knockout
Method: (§1) • i. Adhered cells were washed with 1 mL DPBS and trypsinised by addition of trypsin to 0.05% w/v and incubation under standard conditions. • ii. 1 mL cell culture medium was added to the detached cells to inhibit trypsin and suspended cells were centrifuged at 200×g for 5 minutes at room temperature. • iii. The supernatant was discarded and the cells were resuspended in 1 ml cell culture medium and exact cell number was determined using hemocytometer after Trypan blue staining. • iv. Cells were seeded according to table 5 in 90 μl/well in opaque 96-well plates in triplicate. Cells were grown overnight under standard conditions in complete culture medium (see 1c) […].
(§2) • v. Cells were treated with AZD1390 over the concentration range 10 μM-0.00152 μM, prepared by 10-point 3× serial dilutions from a 10 mM DMSO stock. Cells were incubated under standard conditions with the compounds for 7 days with refresh of the medium and drug twice a week. • vi. After the 7 day incubation, CGT assays were performed to assess cell viability.
(§3) Data showing cell viability for NEK1 knockout cell lines and NT cell lines are shown in FIGS. 4A-D. Data are normalized relative to cells treated with DMSO only.

[2] = system: HCC1806 cells ± NEK-1 knockout
Method: as §1, §2, §3

[3] = system: HSC-2 cells ± NEK-1 knockout
Method: as §1, §2, §3

Measured: effect on cell viability when combined with a NEK-1 knockout

CC(C)n1c(=O)n(C)c2cnc3cc(F)c(-c4ccc(OCCCN5CCCCC5)nc4)cc3c21 [AZD1390]
synergistic effect: all assays above
